For one experiment, the target named is T1, hNaV1.7 (Homo sapiens, UniProt Q15858).
T1 construct: expressed in transfected cells; host or cells: HEK 293
The experiment can be described thus: Whole-cell patch clamp on hNaV1.7 expressed in HEK 293 cells. It is filed as cell-based. To be noted: for IC50: HEK 293 cells transfected with hNaV1.7 plus human β1 and β2 subunits, room temperature (20–25 °C), 50 ms depolarization to −10 mV from holding −100 mV, mean ± SEM. The protocol: We maintained human embryonic kidney (HEK) 293 cells at 37 °C in a humidified 5% CO2 incubator in Dulbecco’s Modified Eagle’s Medium (DMEM) supplemented with 10% fetal bovine serum (FBS), 2 mM L-glutamine, 100 units/mL penicillin and 100 µg/mL streptomycin. cDNA genes encoding rat Nav1.2 and mouse Nav1.6 were subcloned into the vectors pcDNA3.1, respectively. We subcloned the gene that encodes hNaV1.7 into the vector pcDNA3.1-mod. We transfected the hNaV1.7 channel (3 μg) together with plasmids β1- (1 μg) and β2-eGFP ([…]), which encode the human β1 and β2 subunits, and Nav1.2 and Nav1.6 together with eGFP in HEK 293 cells using Lipofectamine 2000 (Invitrogen, Carlsbad, CA, USA) per the manufacturer’s instructions.
We performed whole-cell recordings using an EPC 10 patch clamp platform (HEKA, Elektronik, Lambrecht, Germany) at room temperature (20–25 °C). We made suction pipettes with access resistance of 2.0–3.0 MΩ from borosilicate glass capillary tubes (VWR micropipettes; VWR Co., West Chester, PA, USA) using a 2-step vertical microelectrode puller (PC-10; Narishige Co., Ltd., Tokyo, Japan) and compensated for voltage errors using 80% serial-resistance compensation. The standard pipette solution contained (in mM): 140 CsCl, 10 NaCl, 1 ethylene glycol-bis (β-aminoethyl ether)-N,N,N′,N′-tetraacetic acid (EGTA), and 10 HEPES (pH 7.4). The bath solution contained (in mM): 140 NaCl, 2 CaCl2, 1 MgCl2, 5 KCl, 20 4-(2-hydroxyethyl)-1-piperazineethanesulfonic acid (HEPES) and 10 glucose (pH 7.4). We purchased all chemicals from Sigma-Aldrich (St. Louis, MO, USA) and dissolved them in water. Data were acquired using PATCHMASTER software version 2x73 (HEKA Elektronik Dr. Schulze GmbH, Lambrecht, Germany). We filtered macroscopic sodium currents at 5 kHz and sampled them at 20 kHz. We acquired voltage clamp recordings 5 min after establishing a whole-cell configuration to allow adequate equilibration between the micropipette solution and the cell interior. We elicited channel current by 50 milliseconds of depolarization potential to −10 mV from the holding voltage of −100 mV.
We analyzed the data using Igor Pro software version 6.10A (WaveMetrics, Lake Oswego, OR, USA), Sigmaplot software version 10 (Sigma, St. Louis, MO, USA), OriginPro software version 8 (OriginLab Corp., Northampton, MA, USA) and Prism software version 5 (GraphPad Software, San Diego, CA, USA). Concentration–response curves were fitted using the following Hill logistic equation:y = fmax − (fmax − fmin)/(1 + (x/IC50)^n)(1) where fmax and fmin respectively represent the channel’s maximum and minimum responses to toxins, fmin was set to 0, x represents toxin concentration and n is an empirical Hill coefficient. All quantitative results are presented as mean ± standard error of the mean (SEM).
A general note: Patch clamp records ionic current or voltage across a cell membrane.

For a further experiment, the system named is insect sodium channels. Particulars: cited from earlier work. The text has this:
(§1) Previously, we reported the identification of 33-residue peptide µ-TRTX-Hhn2b (HNTX-I), a member of NaSpTx family 1, from the venom of the spider Selenocosmia hainana. Although the amino acid sequence of this family is highly conserved, HNTX-I has shown weak affinity on insect sodium channels and no effect on mammalian voltage-gated sodium channels (VGSCs), unlike the majority of peptide toxins in NaSpTx family 1 [20]. In this study, we used HNTX-I as a framework and engineered analogues of it based on sequence conservation in the family. Ultimately, we engineered a gain-of-function analogue ...

The subject of experiment [1] is mammalian voltage-gated sodium channels (VGSCs). Particulars: including hNaV1.7; cited from earlier work.
Excerpt: as §1, with “Pain is a medical condition that interferes with normal human life and work and reduces human well-being worldwide. Human voltage-gated sodium channel NaV1.7 (hNaV1.7) is a compelling target that plays a key role in human pain signaling. […] We engineered analogues of HNTX-I based on sequence conservation in NaSpTx family 1. Substitution of Asn for Ser at position 23 or Asp for His at ... || Previously,” for “Previously,”

“Also recorded” adds a separate entry of the source. Bridge positions count the residues as written; N and C are the ends. Peptide text beside a SMILES is read from it.

The IC50 is the concentration needed to halve the response being measured.

T1 sequence (O60939 30-215): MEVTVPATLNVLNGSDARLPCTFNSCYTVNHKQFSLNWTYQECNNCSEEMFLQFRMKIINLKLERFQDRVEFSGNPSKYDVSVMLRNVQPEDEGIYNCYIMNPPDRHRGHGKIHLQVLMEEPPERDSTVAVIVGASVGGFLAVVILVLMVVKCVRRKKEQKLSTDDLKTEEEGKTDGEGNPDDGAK
T1 sequence (Q07699 19-218, further chain): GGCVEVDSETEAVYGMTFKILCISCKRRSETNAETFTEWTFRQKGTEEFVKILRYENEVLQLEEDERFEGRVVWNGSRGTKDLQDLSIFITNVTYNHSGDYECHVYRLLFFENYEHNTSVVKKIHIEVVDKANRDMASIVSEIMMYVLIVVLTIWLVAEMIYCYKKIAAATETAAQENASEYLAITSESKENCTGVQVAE
T1 sequence (Q15858 other isoform, or with tags, fused parts or gaps): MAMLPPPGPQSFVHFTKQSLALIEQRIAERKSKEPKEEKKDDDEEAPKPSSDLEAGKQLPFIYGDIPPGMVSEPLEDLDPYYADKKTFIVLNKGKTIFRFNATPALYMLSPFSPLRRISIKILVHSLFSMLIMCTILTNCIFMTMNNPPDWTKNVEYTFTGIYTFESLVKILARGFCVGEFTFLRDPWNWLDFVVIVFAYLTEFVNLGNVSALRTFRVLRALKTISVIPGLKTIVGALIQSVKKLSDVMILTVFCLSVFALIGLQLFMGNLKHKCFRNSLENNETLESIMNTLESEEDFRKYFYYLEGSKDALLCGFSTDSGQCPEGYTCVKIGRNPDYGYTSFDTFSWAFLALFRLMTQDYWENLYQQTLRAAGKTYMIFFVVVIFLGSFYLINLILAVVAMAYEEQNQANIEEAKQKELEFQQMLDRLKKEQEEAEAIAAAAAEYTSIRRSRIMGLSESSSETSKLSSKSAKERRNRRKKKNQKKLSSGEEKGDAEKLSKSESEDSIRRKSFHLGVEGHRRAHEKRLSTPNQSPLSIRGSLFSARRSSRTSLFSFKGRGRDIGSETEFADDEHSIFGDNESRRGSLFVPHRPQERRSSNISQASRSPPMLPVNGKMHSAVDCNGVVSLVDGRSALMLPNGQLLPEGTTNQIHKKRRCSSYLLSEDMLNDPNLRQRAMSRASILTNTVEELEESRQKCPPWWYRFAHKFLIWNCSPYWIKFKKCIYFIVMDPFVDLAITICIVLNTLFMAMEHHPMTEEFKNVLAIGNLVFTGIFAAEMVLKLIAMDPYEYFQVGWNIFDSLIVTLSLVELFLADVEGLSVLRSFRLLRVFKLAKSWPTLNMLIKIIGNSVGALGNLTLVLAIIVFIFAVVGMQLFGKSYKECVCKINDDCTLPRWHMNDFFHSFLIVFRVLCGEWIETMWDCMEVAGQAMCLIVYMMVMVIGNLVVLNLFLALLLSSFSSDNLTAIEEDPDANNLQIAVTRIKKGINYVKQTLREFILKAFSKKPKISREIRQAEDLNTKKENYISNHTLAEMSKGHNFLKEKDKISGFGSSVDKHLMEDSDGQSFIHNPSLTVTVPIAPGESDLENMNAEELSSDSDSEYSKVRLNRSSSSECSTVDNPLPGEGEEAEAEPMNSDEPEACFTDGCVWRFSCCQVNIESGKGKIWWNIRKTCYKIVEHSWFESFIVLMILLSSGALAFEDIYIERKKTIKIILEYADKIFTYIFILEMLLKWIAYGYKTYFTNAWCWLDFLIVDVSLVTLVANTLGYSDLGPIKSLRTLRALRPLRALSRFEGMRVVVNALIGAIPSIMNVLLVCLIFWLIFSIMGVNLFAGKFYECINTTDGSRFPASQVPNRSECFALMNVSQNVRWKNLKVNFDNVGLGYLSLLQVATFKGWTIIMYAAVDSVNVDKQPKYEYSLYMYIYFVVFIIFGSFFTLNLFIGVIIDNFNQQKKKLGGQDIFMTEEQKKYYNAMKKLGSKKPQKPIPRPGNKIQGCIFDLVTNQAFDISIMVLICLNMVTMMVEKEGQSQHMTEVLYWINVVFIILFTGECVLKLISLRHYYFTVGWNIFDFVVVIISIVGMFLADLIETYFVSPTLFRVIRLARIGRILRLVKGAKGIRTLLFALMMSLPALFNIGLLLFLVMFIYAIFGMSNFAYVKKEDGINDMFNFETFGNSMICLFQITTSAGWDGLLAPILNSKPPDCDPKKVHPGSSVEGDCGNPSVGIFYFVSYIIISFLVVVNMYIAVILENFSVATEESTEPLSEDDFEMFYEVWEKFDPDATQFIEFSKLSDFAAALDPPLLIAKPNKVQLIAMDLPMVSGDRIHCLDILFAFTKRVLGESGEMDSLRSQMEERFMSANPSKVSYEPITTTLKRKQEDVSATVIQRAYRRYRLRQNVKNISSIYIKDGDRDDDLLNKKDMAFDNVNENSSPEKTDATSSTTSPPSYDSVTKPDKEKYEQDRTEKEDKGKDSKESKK

For the compound `CC(C)C[C@H](NC(=O)[C@H](CC(C)C)NC(=O)[C@@H](NC(=O)[C@H](CCCCN)NC(=O)[C@@H]1CSSC[C@@H]2NC(=O)[C@H](CCC(=O)O)NC(=O)[C@H](CC(N)=O)NC(=O)[C@H](CCCCN)NC(=O)CNC(=O)[C@@H]3CCCN3C(=O)[C@H](C(C)C)NC(=O)[C@@H]3CSSC[C@H](NC(=O)[C@H](C)NC(=O)[C@H](Cc4ccc(O)cc4)NC(=O)CNC(=O)[C@H](CO)NC(=O)[C@H](CSSC[C@H](NC(=O)[C@@H](N)CCC(=O)O)C(=O)N[C@@H](CCCCN)C(=O)NCC(=O)N[C@@H](Cc4ccccc4)C(=O)NCC(=O)N[C@@H](CCCCN)C(=O)N[C@@H](CO)C(=O)N3)NC2=O)C(=O)N[C@@H](CO)C(=O)N[C@@H](CO)C(=O)N[C@@H](CCCNC(=N)N)C(=O)N[C@@H](CC(=O)O)C(=O)N[C@@H](CCCCN)C(=O)N[C@@H](Cc2c[nH]c3ccccc23)C(=O)N1)C(C)C)C(=O)O` [N23S] (H-ECKGFGKSCVPGKNECCSGYACSSRDKWCKVLL-OH; disulfide 2-17, 9-22, 16-29), the IC50 at hNaV1.7 (n ≥ 3, SEM) is 0.435 ± 0.072 µM.

For `CC(C)C[C@H](NC(=O)[C@H](CC(C)C)NC(=O)[C@@H](NC(=O)[C@H](CCCCN)NC(=O)[C@@H]1CSSC[C@@H]2NC(=O)[C@H](CCC(=O)O)NC(=O)[C@H](CC(N)=O)NC(=O)[C@H](CCCCN)NC(=O)CNC(=O)[C@@H]3CCCN3C(=O)[C@H](C(C)C)NC(=O)[C@@H]3CSSC[C@H](NC(=O)[C@H](C)NC(=O)[C@H](Cc4ccc(O)cc4)NC(=O)CNC(=O)[C@H](CO)NC(=O)[C@H](CSSC[C@H](NC(=O)[C@@H](N)CCC(=O)O)C(=O)N[C@@H](CCCCN)C(=O)NCC(=O)N[C@@H](Cc4ccccc4)C(=O)NCC(=O)N[C@@H](CCCCN)C(=O)N[C@@H](CO)C(=O)N3)NC2=O)C(=O)N[C@@H](CO)C(=O)N[C@@H](CO)C(=O)N[C@@H](CCCNC(=N)N)C(=O)N[C@@H](Cc2c[nH]cn2)C(=O)N[C@@H](CCCCN)C(=O)N[C@@H](Cc2c[nH]c3ccccc23)C(=O)N1)C(C)C)C(=O)O` [N23S–D26H] (H-ECKGFGKSCVPGKNECCSGYACSSRHKWCKVLL-OH; disulfide 2-17, 9-22, 16-29), the IC50 at hNaV1.7 (n ≥ 3, SEM) was 0.079 ± 0.004 µM.

On to `CC(C)C[C@H](NC(=O)[C@H](Cc1c[nH]c2ccccc12)NC(=O)[C@@H](NC(=O)[C@H](CCCCN)NC(=O)[C@@H]1CSSC[C@@H]2NC(=O)[C@H](CCC(=O)O)NC(=O)[C@H](CC(N)=O)NC(=O)[C@H](CCCCN)NC(=O)CNC(=O)[C@@H]3CCCN3C(=O)[C@H](C(C)C)NC(=O)[C@@H]3CSSC[C@H](NC(=O)[C@H](C)NC(=O)[C@H](Cc4ccc(O)cc4)NC(=O)CNC(=O)[C@H](CO)NC(=O)[C@H](CSSC[C@H](NC(=O)[C@@H](N)CCC(=O)O)C(=O)N[C@@H](CCCCN)C(=O)NCC(=O)N[C@@H](Cc4ccccc4)C(=O)NCC(=O)N[C@@H](CCCCN)C(=O)N[C@@H](CO)C(=O)N3)NC2=O)C(=O)N[C@@H](CO)C(=O)N[C@@H](CO)C(=O)N[C@@H](CCCNC(=N)N)C(=O)N[C@@H](Cc2c[nH]cn2)C(=O)N[C@@H](CCCCN)C(=O)N[C@@H](Cc2c[nH]c3ccccc23)C(=O)N1)C(C)C)C(=O)O` [N23S–D26H–L32W] (H-ECKGFGKSCVPGKNECCSGYACSSRHKWCKVWL-OH; disulfide 2-17, 9-22, 16-29), for which the IC50 on hNaV1.7 (n ≥ 3, SEM) came to 0.071 ± 0.005 µM.

For `CC(C)C[C@H](NC(=O)[C@H](CC(C)C)NC(=O)[C@@H](NC(=O)[C@H](CCCCN)NC(=O)[C@@H]1CSSC[C@@H]2NC(=O)[C@H](CCC(=O)O)NC(=O)[C@H](CC(N)=O)NC(=O)[C@H](CCCCN)NC(=O)CNC(=O)[C@@H]3CCCN3C(=O)[C@H](C(C)C)NC(=O)[C@@H]3CSSC[C@H](NC(=O)[C@H](C)NC(=O)[C@H](Cc4ccc(O)cc4)NC(=O)CNC(=O)[C@H](CO)NC(=O)[C@H](CSSC[C@H](NC(=O)[C@@H](N)CCC(=O)O)C(=O)N[C@@H](CCCCN)C(=O)NCC(=O)N[C@@H](Cc4ccccc4)C(=O)NCC(=O)N[C@@H](CCCCN)C(=O)N[C@@H](CO)C(=O)N3)NC2=O)C(=O)N[C@@H](CC(N)=O)C(=O)N[C@@H](CO)C(=O)N[C@@H](CCCNC(=N)N)C(=O)N[C@@H](CC(=O)O)C(=O)N[C@@H](CCCCN)C(=O)N[C@@H](Cc2c[nH]c3ccccc23)C(=O)N1)C(C)C)C(=O)O` [Native HNTX-I] (H-ECKGFGKSCVPGKNECCSGYACNSRDKWCKVLL-OH; disulfide 2-17, 9-22, 16-29 (inferred); N-terminus and C-terminus assumed), the “Activity on NaV1.7 at a concentration of 10 µM” value at hNaV1.7 (10 µM peptide, HEK 293 cells (Figure 2A–C)) is given as “negligible activity”. In addition, at hNaV1.7 (n ≥ 3), the IC50 was over 10 µM. For the same compound, in the experiment with insect sodium channels, the “Affinity on insect sodium channels” value is given as “weak affinity”. Besides, the “Effect on mammalian voltage-gated sodium channels (VGSCs)” value in experiment [1] is reported as “negligible activity; also recorded: no effect”.

These data come from publication PMC6162447, “Engineering Gain-of-Function Analogues of the Spider Venom Peptide HNTX-I, A Potent Blocker of the hNaV1.7 Sodium Channel” (Toxins, 2018).
